Where “and” joins values, the source holds several entries; their conditions need not be identical. Identical values can stand only once.
In the case of COc1cc(N2CCN(C3CCN(c4ccc(F)c5cccnc45)CC3)CC2)c2ncccc2c1 (hydrate or solvate) [Form A, 6-methoxy-8-[4-(1-(5-fluoro)-quinolin-8-yl-piperidin-4-yl)-piperazin-1-yl]-quinoline], the melting point is reported as ~ 196 °C and 198 °C.
